From patent US9029405B2, “5-(biphenyl-4-yl)-3-phenyl-1,2,4-oxadiazolyl derivatives as ligands on the sphingosine 1-phosphate(SIP)receptors” (Merck Serono S.A., priority 2010, dated 2015)
Structures can show the parent of a compound that is named as a salt. Where two headings read alike, the source gives them in different places.

Legend:
S1P1 [1] = molecular target: T1, S1P1 (Homo sapiens, UniProt P21453); assay: Receptor binding assay, [33P]sphingosine 1-phosphate competition, membranes of CHO cells expressing S1P1
How it was run: (§1)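 SPA competition on CHO membranes with [33P]S1P at 30 pM (S1P1) or 15 pM (S1P3), in 50 mM HEPES pH 7.5, 5 mM MgCl2, 100 mM NaCl, 0.4% fatty acid-free BSA, 60 min at RT. Non-specific binding defined by 1000-fold unlabeled S1P; Ki values reported.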
Target sequence in this assay (P21453 whole entry, species assumed): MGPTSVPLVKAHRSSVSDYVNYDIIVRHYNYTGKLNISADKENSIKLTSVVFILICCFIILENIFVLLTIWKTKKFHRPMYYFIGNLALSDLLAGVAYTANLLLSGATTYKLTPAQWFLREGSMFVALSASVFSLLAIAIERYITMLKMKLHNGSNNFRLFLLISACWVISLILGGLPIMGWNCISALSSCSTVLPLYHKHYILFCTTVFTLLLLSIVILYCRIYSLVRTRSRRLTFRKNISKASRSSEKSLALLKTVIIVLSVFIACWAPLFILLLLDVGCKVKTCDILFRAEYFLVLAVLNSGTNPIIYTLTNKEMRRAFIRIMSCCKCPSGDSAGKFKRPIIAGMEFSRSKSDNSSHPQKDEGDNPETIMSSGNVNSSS

S1P3 = S1P3 (Homo sapiens, UniProt Q99500); assay: Receptor binding assay, [33P]sphingosine 1-phosphate competition, membranes of CHO cells expressing S1P3
How it was run: as §1

lymphocytes = assay: Model of S1P agonists-induced lymphopenia in mice; format: in vivo; conditions: oral route, 30 mpk
Experimental: (§2) Female C57BL/6 mice (Elevage Janvier) (8 week old) receive S1P agonists by oral route. Blood is sampled in heparinized (100 IU/kg, ip) mice by intracardiac or retroorbital puncture under isoflurane anesthesia 2 to 120 hrs after drug treatment. The white blood cells (lymphocytes and neutrophils) are counted using a Beckman/Coulter counter. The quality of blood sampling is assessed by counting erythocytes and platelets.

[2] = Pharmacokinetics from lymphopenia study (mouse); format: in vivo; conditions: PK-PD (30 mpk)
Experimental: as §2
The pharmacokinetic properties of compound of example 31, 2-({2-Fluoro-4-[5-(2′-methyl-2-trifluoromethyl-biphenyl-4-yl)-[1,2,4]oxadiazol-3-yl]-benzyl}-methyl-amino)-2-methyl-propionic acid, are the following: […]

S1P1 [3] = molecular target: T1, S1P1; assay: S1P1 internalization assay in S1P1-U2OS cells (cell imaging); format: cell-based; parameters: host or cells: U2OS (human bone osteosarcoma epithelial cells); conditions: U2OS cells expressing S1P1-EGFP, 384-well format
How it was run: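 U2OS cells stably expressing human S1P1-EGFP, serum-starved 2 h in medium with 0.1% fatty-acid-free BSA, then compound 1 h at 37° C. After fixation and Hoechst nuclear stain, receptor internalization imaged as EGFP spot count per nucleus.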
Target sequence in this assay (P21453 whole entry): as the sequence (P21453 whole entry, species assumed) above

[4] = 384 well plate, read-out: S1P1 Binding Ki [M] (384 well plate)
[5] = 384 well plate, read-out: S1P3 Binding Ki [M] (384 well plate)
[6] = female, C57BL/6, plasma, 30 mg/kg, oral route
[7] = 96 well plate, read-out: S1P3 Binding Ki [M] (96 well plate)
[8] = 96 well plate, read-out: S1P1 Binding Ki [M] (96 well plate)

S1P3, sequence (Q99500 whole entry, species assumed): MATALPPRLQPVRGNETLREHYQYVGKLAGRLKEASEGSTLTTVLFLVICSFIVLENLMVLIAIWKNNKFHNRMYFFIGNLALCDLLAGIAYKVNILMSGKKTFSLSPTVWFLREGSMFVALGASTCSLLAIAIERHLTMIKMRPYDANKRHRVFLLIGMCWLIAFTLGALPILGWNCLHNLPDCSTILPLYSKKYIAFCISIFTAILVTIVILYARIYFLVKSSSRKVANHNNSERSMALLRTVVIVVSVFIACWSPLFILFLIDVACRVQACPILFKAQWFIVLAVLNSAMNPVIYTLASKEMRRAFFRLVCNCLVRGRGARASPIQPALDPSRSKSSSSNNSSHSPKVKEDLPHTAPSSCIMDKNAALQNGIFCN

Row | SMILES | melting point | Ki (S1P1 [1]; [4]) | Ki (S1P3; [5]) | EC50 (S1P1 [3]) | other results
1 | Cc1ccccc1-c1ccc(-c2nc(-c3cccc(C(C)NCC(=O)O)c3)no2)cc1C(F)(F)F (stereo not shown) (as salt: hydrochloride) [Example 42, N-[1-(3-{5-[2′-methyl-2-(trifluoromethyl)biphenyl-4-yl]-1,2,4-oxadiazol-3-yl}phenyl)ethyl]glycine, hydrochloride salt] | 177 °C | – | – | – | –
2 | Cc1cc(-c2nc(-c3ccc([C@H](C)N(C)CC(=O)O)cc3)no2)ccc1-c1ccccc1C(F)(F)F (as salt: hydrochloride) [Example 33, N-methyl-N-[(1S)-1-(4-{5-[2-methyl-2′-(trifluoromethyl)biphenyl-4-yl]-1,2,4-oxadiazol-3-yl}phenyl)ethyl]glycine, hydrochloride salt] | 217 °C | – | – | – | –
3 | Cc1ccccc1-c1ccc(-c2nc(-c3ccc([C@H](C)N(C)CC(=O)O)cc3)no2)cc1C(F)(F)F (as salt: hydrochloride) [Example 34, N-methyl-N-[(1S)-1-(4-{5-[2′-methyl-2-(trifluoromethyl)biphenyl-4-yl]-1,2,4-oxadiazol-3-yl}phenyl)ethyl]glycine, hydrochloride salt] | 221 °C | – | – | – | –
4 | Cc1cc(-c2nc(-c3cccc(C(C)NCC(=O)O)c3)no2)ccc1-c1ccccc1C(F)(F)F (stereo not shown) (as salt: hydrochloride) [Example 38, N-[1-(3-{5-[2-methyl-2′-(trifluoromethyl)biphenyl-4-yl]-1,2,4-oxadiazol-3-yl}phenyl)ethyl]glycine, hydrochloride salt] | 176 °C | – | – | – | –
5 | Cc1ccccc1-c1ccc(-c2nc(-c3ccc(C(C)N(C)CC(=O)O)cc3)no2)cc1C(F)(F)F (stereo not shown) (as salt: hydrochloride) [Example 40, N-methyl-N-[1-(4-{5-[2′-methyl-2-(trifluoromethyl)biphenyl-4-yl]-1,2,4-oxadiazol-3-yl}phenyl)ethyl]glycine, hydrochloride salt] | 204 °C | – | – | – | –
6 | Cc1cc(-c2nc(-c3ccc([C@@H](C)N(C)CC(=O)O)cc3)no2)ccc1-c1ccccc1C(F)(F)F (as salt: hydrochloride) [Example 35, N-methyl-N-[(1R)-1-(4-{5-[2-methyl-2′-(trifluoromethyl)biphenyl-4-yl]-1,2,4-oxadiazol-3-yl}phenyl)ethyl]glycine, hydrochloride salt] | 217 °C | – | – | – | –
7 | Cc1ccccc1-c1ccc(-c2nc(-c3ccc([C@@H](C)N(C)CC(=O)O)cc3)no2)cc1C(F)(F)F (as salt: hydrochloride) [Example 36, N-methyl-N-[(1R)-1-(4-{5-[2′-methyl-2-(trifluoromethyl)biphenyl-4-yl]-1,2,4-oxadiazol-3-yl}phenyl)ethyl]glycine, hydrochloride salt] | 221 °C | – | – | – | –
8 | CCC(NCc1ccc(-c2noc(-c3ccc(-c4ccccc4C)c(C(F)(F)F)c3)n2)cc1F)C(=O)O (stereo not shown) (as salt: hydrochloride) [Example 41, 2-[(2-fluoro-4-{5-[2′-methyl-2-(trifluoromethyl)biphenyl-4-yl]-1,2,4-oxadiazol-3-yl}benzyl)amino]butanoic acid, hydrochloride salt] | 214 °C | – | – | – | –
9 | Cc1ccccc1-c1ccc(-c2nc(-c3ccc(CN(C)C(C)(C)C(=O)O)c(F)c3)no2)cc1C(F)(F)F [Example 31, 2-({2-Fluoro-4-[5-(2′-methyl-2-trifluoromethyl-biphenyl-4-yl)-[1,2,4]oxadiazol-3-yl]-benzyl}-methyl-amino)-2-methyl-propionic acid] | – | 5.32e-09 M | 2.54e-06 M | 36.6 nM | % of lymphopenia in mouse at 48 h (lymphocytes): % of lymphopenia in mouse at 48 h 67 +/− 6; Lymphe node/plasma ratio: 24 h ([2]; 24 h): 2.5; Lymphe node/plasma ratio: 48 h ([2]; 48 h): 2.7; CI/F ([2]; oral route): 6.7 mL/min/kg; Kp ([2]; female, C57BL/6, brain/plasma, oral, 30 mg/kg, ratio of AUCz, read-out: Brain/plasma ratio: AUCZ (h*ng/ml)): 3.5; AUC(0-inf) [2, 6]: 75000 ng·h/mL; Cmax [2, 6]: 7420 ng/mL; Tmax [2, 6]: 2 h; half-life ([2]; female, C57BL/6, plasma, 30 mg/kg, oral route, read-out: T½ (converted)): 6.3 h
10 | COCc1cc(-c2nc(-c3ccc(C(C)N(C)CC(=O)O)cc3)no2)ccc1-c1ccccc1C (stereo not shown) [Example 15, N-[1-(4-{5-[2-(methoxymethyl)-2′-methylbiphenyl-4-yl]-1,2,4-oxadiazol-3-yl}phenyl)ethyl]-N-methylglycine, hydrochloride salt] | – | 1.98e-09 M | 5.68e-07 M | 89.3 nM | –
11 | Cc1ccccc1-c1ccc(-c2nc(-c3ccc(CN(C)[C@H](C)C(=O)O)cc3)no2)cc1C(F)(F)F [Example 71] | – | 2e-09 M | 7.7e-07 M | 5.66 nM | Ki (S1P3; [7]): 7.01e-07 M
12 | Cc1ccccc1-c1ccc(-c2nc(-c3cccc(CNC4(C(=O)O)CCC4)c3)no2)cc1C(F)(F)F [Example 80] | – | 3.18e-10 M | 3.51e-08 M | 1.22 nM | –
13 | Cc1cc(-c2nc(-c3ccc([C@H](C)N[C@H](C)C(=O)O)cc3)no2)ccc1-c1ccccc1C(F)(F)F (racemic) [Example 25, N-[(1S)-1-(4-{5-[2-methyl-2′-(trifluoromethyl)biphenyl-4-yl]-1,2,4-oxadiazol-3-yl}phenyl)ethyl]-D-alanine and N-[(1R)-1-(4-{5-[2-methyl-2′-(trifluoromethyl)biphenyl-4-yl]-1,2,4-oxadiazol-3-yl}phenyl)ethyl]-L-alanine] | – | 2.59e-09 M | > 2e-05 M | 28.1 nM | –
14 | COCc1cc(-c2nc(-c3ccc(CN(C)C(C)(C)C(=O)O)c(F)c3)no2)ccc1-c1ccccc1C [Example 43, N-(2-fluoro-4-{5-[2-(methoxymethyl)-2′-methylbiphenyl-4-yl]-1,2,4-oxadiazol-3-yl}benzyl)-N,2-dimethylalanine, hydrochloride salt] | – | 2.32e-09 M | 8.4e-07 M | 24.1 nM | Ki (S1P1 [1]; [8]): 6.3e-10 M; Ki (S1P3; [7]): 3.15e-06 M
15 | Cc1ccccc1-c1ccc(-c2nc(-c3ccc(CN[C@@H](CCO)C(=O)O)cc3)no2)cc1C(F)(F)F [Example 60] | – | 3.46e-09 M | 1.03e-06 M | 24.2 nM | –
16 | Cc1cc(-c2nc(-c3ccc([C@@H](C)NCC(=O)O)cc3)no2)ccc1-c1ccccc1C(F)(F)F [Example 8, N-[(1R)-1-(4-{5-[2-methyl-2′-(trifluoromethyl)biphenyl-4-yl]-1,2,4-oxadiazol-3-yl}phenyl)ethyl]glycine, hydrochloride salt] | – | 3.68e-09 M | 6.38e-06 M | 26.9 nM | Ki (S1P1 [1]; [8]): 9.13e-10 M; Ki (S1P3; [7]): > 2e-05 M
17 | Cc1ccccc1-c1ccc(-c2nc(-c3ccc(CN(C)[C@H](C(=O)O)C(C)C)c(F)c3)no2)cc1C(F)(F)F [Example 13, N-(2-fluoro-4-{5-[2′-methyl-2-(trifluoromethyl)biphenyl-4-yl]-1,2,4-oxadiazol-3-yl}benzyl)-N-methylvaline, hydrochloride salt] | – | 5.23e-09 M | 1.53e-06 M | 283 nM | –
